{
  "source": "patent US20250367113A1",
  "about": "“DRUG DELIVERY SYSTEM COMPRISING AN ANTI-INFLAMMATORY AGENT OR A SALT THEREOF FOR THE APPLICATION TO ESOPHAGEAL MUCOUS MEMBRANES” (EsoCap AG, priority 2022, published 2025)",
  "key": {"[1]": {"system": "refractory eosinophilic esophagitis", "details": "systemically administered, small case series; cited from earlier work"}, "eotaxin-3 secretion": {"system": "eotaxin-3 secretion", "details": "cells from eosinophilic esophagitis patients; cited from earlier work"}, "[2]": {"test": "UV/Vis spectroscopy of tofacitinib content and spectrum in the polymer film", "format": "physicochemical", "details": "citrate buffer, pH 4.0 with 20% methanol", "procedure": "Further, the film was analyzed for the content of tofacitinib. To this end, 6 circular samples with a diameter of 1.9 cm (2.84 cm^2) were cut at random positions of the film and analyzed with a UV/Vis spectroscopy in a citrate buffer, pH 4.0 with 20% methanol. The absorption spectrum is shown in FIG. 10 in comparison to a reference sample (tofacitinib solved in citrate buffer, pH 4.0 with 20% methanol)."}, "eosinophilic esophagitis": {"system": "eosinophilic esophagitis", "details": "person, after 3 months of treatment; cited from earlier work"}, "atopic dermatitis": {"system": "atopic dermatitis", "details": "placebo-controlled phase IIa study; cited from earlier work"}, "[3]": {"system": "refractory oral graft-versus-host disease", "details": "single case, cited from earlier work"}},
  "data": [
    {"compound": "Sc1ncnc2nc[nH]c12", "note": "[6-mercaptopurine]", "values": [
      {"measurement": "efficacy in the treatment of refractory eosinophilic esophagitis", "setting": "[1]", "result": "efficient"}
    ]},
    {"compound": "NC(=O)c1cnc(NCCc2ccc(O)c(Cl)c2)nc1NCc1ccccc1", "note": "[AS1517499]", "values": [
      {"measurement": "eotaxin-3 secretion by epithelial cells and fibroblasts", "setting": "eotaxin-3 secretion", "result": "block eotaxin-3 secretion"}
    ]},
    {"compound": "C[C@@H]1CCN(C(=O)CC#N)C[C@@H]1N(C)c1ncnc2[nH]ccc12", "note": "[Tofacitinib, tofacitinib]", "values": [
      {"measurement": "stability of tofacitinib in the film (absorption spectrum versus reference sample)", "setting": "[2]", "result": "can be stably prepared in a film"},
      {"measurement": "appearance of the esophagus", "setting": "eosinophilic esophagitis", "result": "significantly improve the appearance of the esophagus"},
      {"measurement": "number of eosinophils found in esophageal biopsies", "setting": "eosinophilic esophagitis", "result": "least number of eosinophils found in esophageal biopsies"},
      {"measurement": "results of topical treatment of atopic dermatitis", "setting": "atopic dermatitis", "result": "convincing results"}
    ]},
    {"compound": "Cn1cnc([N+](=O)[O-])c1Sc1ncnc2nc[nH]c12", "note": "[azathioprine]", "values": [
      {"measurement": "efficacy in the treatment of refractory eosinophilic esophagitis", "setting": "[1]", "result": "efficient"},
      {"measurement": "tolerability", "setting": "[3]; additional topical administration", "result": "well tolerated"},
      {"measurement": "clinical benefit of additional topical administration", "setting": "[3]; topically and systemically administered suspension", "result": "seemed to add some clinical benefit"}
    ]},
    {"compound": "Cc1oncc1C(=O)Nc1ccc(C(F)(F)F)cc1", "note": "[leflunomide]", "values": [
      {"measurement": "eotaxin-3 secretion by epithelial cells and fibroblasts", "setting": "eotaxin-3 secretion", "result": "block eotaxin-3 secretion"}
    ]}
  ]
}
